Test results published in US9169232B2, “3-(5-methyl-2-oxo-l, 3-dioxol-4-yl) methyloxy-2-trans-[(4-chloro phenyl) cyclohexyl][1,4]naphthaquinone-atovaquone prodrug” (Alkem Laboratories Limited, priority 2011, dated 2015).

Assays:
[1] = in-vitro and animal study of toxicity; format: in vivo
Description: (§1) The Atovaquone prodrug compound of formula (I) of the present invention overcomes the problems associated with poor solubility and variable bioavailability of atovaquone.

[2] = solubility of the prodrug compared with atovaquone; format: physicochemical
Description: as §1

[3] = plasma levels of atovaquone after administration of the prodrug; conditions: in vivo
Description: as §1

**Q.** For `Cc1oc(=O)oc1COC1=C(C2CCC(c3ccc(Cl)cc3)CC2)C(=O)c2ccccc2C1=O` (stereo not drawn) [compound of formula (I), 3-(5-methyl-2-oxo-1,3-dioxol-4-yl)methyloxy-2-trans-[(4-chlorophenyl)cyclohexyl][1,4]naphthaquinone], which toxicity [1] is on record?
**A.** The toxicity was “toxicity in the acceptable range”.

**Q.** And the “solubility compared with atovaquone” value [2]?
**A.** The value was “better solubility than atovaquone”.

**Q.** And the “plasma levels of atovaquone compared with levels after administration of atovaquone” value [3]?
**A.** Its value is “non-variable plasma levels of atovaquone”.
